Patent US10544146B2, “Bicyclic compounds and their use as antibacterial agents and β-lactamase inhibitors” (priority 2011, dated 2020)

Tests used:
Assay type in all cases: cell-based
[1] = system: metallo β-lactamase producing bacteria; experiment: MIC in combination with various antibiotics against metallo β-lactamase producing bacteria (Tables 10-12); details: substance alone
Method: (§1) In the Tables 10-12, compounds of the present invention were tested in combination with various antibiotics against metallo β-lactamase producing bacteria.

[2] = system: A. baumanii JMI 2659; experiment: MIC, antibacterial and synergistic activity; details: Acinetobacter baumannii, JMI2659, substance alone
Method: as §1

[3] = system: E. coli ATCC 25922; experiment: MIC, antibacterial and synergistic activity; details: Escherichia coli, ATCC25922, E. coli ATCC 25922, enzyme Wt; substance alone
Method: as §1

[4] = system: E. coli JMI 10767; experiment: MIC, antibacterial and synergistic activity; details: E. coli JMI 10767, Wt; substance alone
Method: as §1

[5] = system: E. coli JMI 2692; experiment: MIC, antibacterial and synergistic activity; details: Escherichia coli, JMI2692; E. coli JMI 2692, NDM-1, TEM-1, CTX-M-15; substance alone
Method: as §1

[6] = system: K. pneumo JMI 2693; experiment: MIC, antibacterial and synergistic activity; details: K. pneumo JMI 2693, NDM-1 (Cpase); substance alone
Method: as §1

[7] = system: K. pneumo JMI 2697; experiment: MIC, antibacterial and synergistic activity; details: K. pneumo JMI 2697, IMP-4 (Cpase); substance alone
Method: as §1

[8] = system: P. aerug JMI 149; experiment: MIC, antibacterial and synergistic activity; details: substance alone
Method: as §1

[9] = system: E. coli JMI 4103; experiment: MIC, antibacterial and synergistic activity; details: Escherichia coli, JMI4103; E. coli JMI 4103, KPC-2, Tem-1, CMY-Type; substance alone
[10] = system: E. coli JMI 4080; experiment: MIC, antibacterial and synergistic activity; details: Escherichia coli, JMI4080, E. coli JMI 4080, Tem-10; substance alone
[11] = system: K. pneumo JMI 2674; experiment: MIC, antibacterial and synergistic activity; details: K. pneumo JMI 2674, CTX-M15 (ESBL); substance alone
[12] = system: K. pneumo JMI 4088; experiment: MIC, antibacterial and synergistic activity; details: substance alone
[13] = system: K. pneumo JMI 4106; experiment: MIC, antibacterial and synergistic activity; details: substance alone
[14] = system: K. pneumo JMI 2681; experiment: MIC, antibacterial and synergistic activity; details: substance alone
[15] = system: P. aerug JMI 2686; experiment: MIC, antibacterial and synergistic activity; details: substance alone
[16] = system: E. coli JMI 10768; experiment: MIC, antibacterial and synergistic activity; details: E. coli JMI 10768, CTX-M15 (Weak ESBL); substance alone
[17] = system: E. coli JMI 10770; experiment: MIC, antibacterial and synergistic activity; details: E. coli JMI 10770, CTX-M15 (Hyper ESBL); substance alone
[18] = system: E. coli JMI 11103; experiment: MIC, antibacterial and synergistic activity; details: substance alone
[19] = Citrobacter freundii, Citrobacter freundii isolate 49469, NDM-1
[20] = Enterobacter cloacae, Enterobacter cloacae isolate 4, VIM-6
[21] = Enterobacter cloacae, Enterobacter cloacae isolate 10, IMP-26
[22] = Enterobacter cloacae, Enterobacter cloacae isolate 25, IMP-4
[23] = Enterobacter cloacae, Enterobacter cloacae isolate 1068, VIM-2
[24] = Enterobacter cloacae, Enterobacter cloacae isolate 1280, VIM-5
[25] = Enterobacter cloacae, Enterobacter cloacae isolate 1471, VIM-1
[26] = Enterobacter cloacae, Enterobacter cloacae isolate 1874, IMP-21
[27] = Enterobacter cloacae, Enterobacter cloacae isolate 3686, IMP-1
[28] = Enterobacter cloacae, Enterobacter cloacae isolate 53477, NDM-1
[29] = Escherichia coli, Escherichia coli isolate 13, IMP-1
[30] = Escherichia coli, Escherichia coli isolate 17, NDM-1
[31] = Escherichia coli, Escherichia coli isolate 49, NDM-1
[32] = Escherichia coli, Escherichia coli isolate 53749, NDM-1
[33] = Klebsiella aerogenes, Enterobacter aerogenes isolate 8397, VIM-1
[34] = Klebsiella aerogenes, Enterobacter aerogenes isolate 47683, VIM-12
[35] = Klebsiella oxytoca, Klebsiella oxytoca isolate 24825, IMP-26
[36] = Klebsiella oxytoca, Klebsiella oxytoca isolate 31141, VIM-23
[37] = Klebsiella pneumoniae, Klebsiella pneumoniae isolate 16, VIM-5
[38] = Klebsiella pneumoniae, Klebsiella pneumoniae isolate 38, NDM-1
[39] = Providencia stuartii, Providencia stuartii isolate 26582, VIM-1
[40] = Serratia marcescens, Serratia marcescens isolate 35, IMP-4
[41] = Serratia marcescens, Serratia marcescens isolate 36098, IMP-19
[42] = K. pneumo JMI 4088, KPC-3 (Cpase)
[43] = K. pneumo JMI 4106, KPC-3, TEM-1, SHV-12, SHV-141
[44] = P. aerug JMI 2686, KPC-2 (Cpase)

CC(=O)NNC(=O)[C@@H]1CC[C@@H]2CN1C(=O)N2OS(=O)(=O)O [Ex. 40, (2S,5R)-N′-acetyl-7-oxo-6-(sulfooxy)-1,6-diazabicyclo[3.2.1]octane-2-carbohydrazide]
2 µg/mL: MIC [1, 25] | MIC [1, 26] | MIC [1, 27] | MIC [1, 28] | MIC [1, 30] | MIC [1, 31] | MIC [1, 32]
1 µg/mL: MIC [1, 29]
61 µg/mL: MIC [1, 20] | MIC [1, 21]
> 64 µg/mL: MIC [1, 19] | MIC [1, 33] | MIC [1, 34] | MIC [1, 35] | MIC [1, 36] | MIC [1, 37] | MIC [1, 38] | MIC [1, 39] | MIC [1, 40] | MIC [1, 41]
4 µg/mL: MIC [1, 22] | MIC [1, 23] | MIC [1, 24]

O=C(NO[C@H]1CCNC1)[C@@H]1CC[C@@H]2CN1C(=O)N2OS(=O)(=O)O [Ex. 2, (2S,5R)-7-Oxo-N-[(3S)-pyrrolidin-3-yloxy]-6-(sulfooxy)-1,6-diazabicyclo[3.2.1]octane-2-carboxamide]
8 µg/mL: MIC [1, 22] | MIC [1, 23]
16 µg/mL: MIC [1, 29]
> 64 µg/mL: MIC [1, 19] | MIC [1, 33] | MIC [1, 34] | MIC [1, 35] | MIC [1, 36] | MIC [1, 37] | MIC [1, 38] | MIC [1, 39] | MIC [1, 40] | MIC [1, 41]
64 µg/mL: MIC [1, 20] | MIC [1, 21]
4 µg/mL: MIC [1, 24] | MIC [1, 25] | MIC [1, 26] | MIC [1, 27] | MIC [1, 28] | MIC [1, 30] | MIC [1, 31] | MIC [1, 32]

O=C(NO[C@H]1CCCNC1)[C@@H]1CC[C@@H]2CN1C(=O)N2OS(=O)(=O)O [Ex. 4, (2S,5R)-7-Oxo-N-[(3S)-piperidin-3-yloxy]-6-(sulfooxy)-1,6-diazabicyclo[3.2.1]octane-2-carboxamide]
8 µg/mL: MIC [1, 28]
4 µg/mL: MIC [1, 22] | MIC [1, 23] | MIC [1, 24] | MIC [1, 25] | MIC [1, 27]
2 µg/mL: MIC [1, 26] | MIC [1, 29] | MIC [1, 30] | MIC [1, 31] | MIC [1, 32]
> 64 µg/mL: MIC [1, 19] | MIC [1, 33] | MIC [1, 34] | MIC [1, 35] | MIC [1, 36] | MIC [1, 37] | MIC [1, 38] | MIC [1, 39] | MIC [1, 40] | MIC [1, 41]
64 µg/mL: MIC [1, 20] | MIC [1, 21]

C[C@H]1[C@H](NC(=O)/C(=N\OC(C)(C)C(=O)O)c2csc(N)n2)C(=O)N1S(=O)(=O)O [Aztreonam, aztreonam]
16 µg/mL: MIC alone ([18]; E. coli JMI 11103, CTX-M15 (Intermediate ESBL)) | MIC [1, 29]
512 µg/mL: MIC ([2]; A. baumanii JMI 2659, Ges-14 (Cpase)) | MIC ([2]; A. baumanii JMI 2659, enzyme Ges-14 (Cpase)) | MIC alone ([8]; P. aerug JMI 149, Bla+++D+) | MIC ([8]; P. aerug JMI 149, enzyme Bla+++D+) | MIC alone [12, 42] | MIC alone ([12]; K. pneumo JMI 4088, enzyme KPC-3 (Cpase)) | MIC alone [13, 43] | MIC alone ([13]; K. pneumo JMI 4106, enzyme KPC-3, TEM-1, SHV-12, SHV-141) | MIC ([14]; K. pneumo JMI 2681, Oxa-48 (Cpase)) | MIC ([14]; K. pneumo JMI 2681, enzyme Oxa-48 (Cpase)) | MIC [15, 44] | MIC ([15]; P. aerug JMI 2686, enzyme KPC-2 (Cpase))
>512 µg/mL: MIC alone [15, 44]
≤1 µg/mL: MIC alone [4]
≤ 0.12 µg/mL: MIC [1, 26]
4 µg/mL: MIC [1, 34]
> 512 µg/mL: MIC [5] | MIC [6] | MIC [7] | MIC [9] | MIC [12, 42] | MIC [13, 43]
32 µg/mL: MIC alone [11] | MIC ([18]; Escherichia coli, JMI11103, E. coli JMI 11103, CTX-M15 (Intermediate ESBL)) | MIC [1, 27] | MIC [1, 39]
8 µg/mL: MIC alone [16] | MIC [1, 24] | MIC [1, 36]
0.25 µg/mL: MIC [3]
64 µg/mL: MIC [10] | MIC alone [17] | MIC [1, 22] | MIC [1, 25] | MIC [1, 38]
